The mortality is the share of the test organisms that died. The LC50 is the concentration that kills 50% of the test population.

The record followed here is patent US3950374A, “Carbamate pesticide” (priority 1972, dated 1976).

Values after ≈ are worked out from the molar mass of the structure shown. Where two headings read alike, the source gives them in different places.

Holding throughout (assay type): in vivo
For series [1], the system named is smaller brown planthoppers (Laodelphax striatellus). Description: Effect on smaller brown planthoppers in soil treatment (Test Example 2). Conditions: 6 % granules, 6 kg./10 ares soil treatment; released after 3 days, observed after 24 hours. Here is the method: Effect on smaller brown planthoppers (Laodelphax striatellus) in soil treatment.
Each of 6 % granules of the present compounds is applied in a ratio of 6 kg./10 ares near the root of rice plants grown into the tillering stage a 1/100,000 Wagner's pot. After 3 days, 30 adult planthoppers are released and covered with a wire cage. After 24 hours, the number of dead and live planthoppers are observed to calculate the mortality rate.

Series [2] concerns green peach aphids (Myzus persicae). The experiment in a line: Effect on green peach aphids in soil treatment (Test Example 3). To be noted: 5 % granules, 6 kg./10 ares soil treatment; after 3 days; chinese cabbages. The text has this:
Effect on green peach aphids (Myzus persicae) in soil treatment.
Many of the aphids are made parasitic on chinese cabbages grown in a pot one month after sowing, and each of 5 % granules of the present compounds is applied in a ratio of 6 kg./10 ares near the root thereof. After 3 days, the number of dead and live aphids are observed to calculate the mortality rate.

In series [3] the test system is tobacco cut worm (Spodoptera litura). The experiment in a line: Effect on tobacco cut worm (Test Example 7). To be noted: 1000 fold dilute solution of emulsifiable concentrate, fourth instar larvae. The procedure:
Effect on tobacco cut worm (Spodoptera litura).
A 1000 fold dilute solution of each emulsifiable concentrate of the present compounds is applied by means of a turn table to a potted chinese cabbage 60 days after sowing. After air-drying, fourth instar larvae of the tobacco cut worm are released and the mortality rate after 24 hours and 48 hours is calculated.

The test system of the next series is nematode. The experiment in a line: Effect on nematode (Test Example 6). Conditions: 500 ppm active ingredient; after 24 hours. The procedure:
0.5 ml. of a nematode-containing aqueous solution separated from food is placed in a test tube with ground stopper containing 0.5 ml. of an aqueous dilute solution of each emulsifiable concentrate of the present compounds. The concentration of the active ingredient in the mixture is adjusted to 500 ppm. After 24 hours, the number of dead and live nematodes are observed microscopically to calculate the mortality rate.

Series [4] has as its system larvae of northern house mosquito (Culex pipien pallens). Description: Effect on mosquito larvae (Test Example 8). The procedure: Effect on mosquito larvae.
200 ml. of an aqueous solution of each emulsifiable concentrate of the present compounds which is adjusted to the concentration of 1 ppm with pure water are placed in a 300 ml. beaker and 30 larvae of northern house mosquito (Culex pipien pallens) are released therein. the mortality rate is calculated.

Series [5] has as its system smaller brown planthoppers (Lacdelphax striatellus). The experiment in a line: Lethal effect on smaller brown planthoppers (Test Example 1). Here is the method: Lethal effect on smaller brown planthoppers (Lacdelphax striatellus)
Rice plants (15 to 20 cm tall) 15 days after germination, are dipped for 1 minute into each aqueous dilute solution of the present compounds in the form of emulsifiable concentrates, and placed in large glass tubes separately after air-drying. Thereafter, 20 to 30 adult planthoppers are released therein and covered with a wire net. After 24 hours, the number of dead and live planthoppers are observed to calculate LC50. The number of the compounds in Table 1 correspond to those of the compounds mentioned above.

Series [6] relates to smaller brown planthoppers (Loadelphax striatellus). Description: Residual effect on smaller brown planthoppers (Test Example 11). To be noted: 1000 fold dilute solution of 50 % emulsifiable concentrate; for Mortality after 4 days: after 4 days (residual effect); for Mortality after 7 days: after 7 days (residual effect). The procedure:
Residual effect on smaller brown planthoppers (Loadelphax striatellus).
From 18 to 23 rice plants are grown into a 3 - 4 leaves stage in each flower pot of 10 cm. in diameter, then a 1000 fold aqueos dilute solution of each 50 % emulsifiable concentrate of the present componds is applied thereto. After air-drying, each pot is covered with a wire cage, and 20 - 30 adult planthoppers are released therein, and after 24 hours the mortality rate is calculated. Furthermore, the planthoppers are released each day to investigate the residual effect of the present compounds.

Series [7] has as its system green rice leafhoppers (Nephotettix cincpiceps). Description: Effect on green rice leafhoppers in soil treatment (Test Example 4). To be noted: 6 % granules, 6 kg./10 ares soil treatment; released after 3 days, observed after 24 hours. Here is the method:
Effect on green rice leafhoppers (Nephotettix cincpiceps) in soil treatment.
Each of 6 % granules of the present compounds is applied in a ratio of 6 kg./10 ares near the root of rice plants grown into the tillering stage in a 1/100,000 Wagner's pot. After 3 days, 30 adult leafhoppers are released and covered with a wire cage. After 24 hours, the number of dead and live leafhoppers are observed to calculate the mortality rate.

The subject of series [8] is rice stem borer (Chilo suppressalis). Description: Lethal effect on rice stem borer (Test Example 5). To be noted: 1000 fold dilute solution of 50 % emulsifiable concentrate; 4 days after application. The text has this: Lethal effect on rice stem borer (Chilo suppressalis).
Eggs just before hatching of the rice stem borer are applied in a ratio of 100/pot near the root of rice plants grown into the tillering stage in a 1/100,000 Wagner's pot. After the eggs hatched and the larvae enter into stems of rice plants, a 1000 fold dilute solution of each 50 % emulsifiable concentrate of the present compounds is applied by means of a turn table. The number of dead and live stem borers are observed to calculate the mortality rate 4 days after application.

Series [9] relates to carmine mite (Tetranychus telarius). The experiment in a line: Acaricidal activity on carmine mite (Test Example 10). To be noted: 1000 fold dilute solution of 40 % wettable powder, 10 ml./pot, after 10 days. The procedure: Acaricidal activity on carmine mite (Tetranychus telarius).
From 10 to 15 female carmine mites are made parasitic, in a ratio of 10 - 15/leaf, on leaves of potted kidney beans is (a leaves stage), 9 days after sowing, and kept at 27°C. For a week in a constant temperature room, then breeding of numerous carmine mites at various growth stages can be observed. At this time, a 1000 fold aqueous dilute solution of each 40 % wettable powder of the present compounds is sprayed by means of a turn table in a ratio of 10 ml./pot. After 10 days, the degree of damage of kidney beans and the degree of breeding of mites are observed and classified into five grades (-, +, […] , +++, ++++ ).
The degree of damage of kidney bean leaves:
-; damage is hardly observed, […]
and the degree of damage in between the two extremes is classified into three grades.
The degree of breeding of carmine mites: -; the number alive is less than 10, ++++; the alive are numerous, and the degree of breeding in between the two extremes is classified into three grades.

In the case of `CCCCCCCCCCCC[S+]([O-])N(C)C(=O)ON=C(C)SC` (stereo not drawn) [Compound 14], the Mortality in series [1] worked out at 90.0%; in [2], 76.5%; in the series with nematode, 100%. Also, the “Mortality After 24 hrs.” value in series [3] worked out at 90%. The “Mortality After 48 hrs.” value in series [3] is reported as 100%.

The molecule `Cc1ccc(OC(=O)N(C)[S+]([O-])c2ccc(Cl)cc2)cc1C` (stereo not drawn) [Compound 11] showed a mortality at 1 ppm in [4] of 100%. Also, in [5] (24 h), the LC50 turned out to be 40 µg/mL (≈ 118 µM). Besides, in [6], the “Mortality after 1 day” value came out at 100%, the “Mortality after 4 days” value came out at 85.0% and the “Mortality after 7 days” value was 75.0%. Also, the Mortality with nematode came out at 75.0%.

`Cc1cccc(OC(=O)N(C)[S+]([O-])c2ccccc2)c1C` (stereo not drawn) [Compound 3] came in with an LC50 in series [5] (24 h) of 70 µg/mL (≈ 231 µM). Moreover, in [6], the “Mortality after 1 day” value was 100%, the “Mortality after 4 days” value was determined as 64.0% and the “Mortality after 7 days” value stood at 50.0%.

Turning to `Cc1cc(C)cc(OC(=O)N(C)[S+]([O-])c2ccccc2)c1` (stereo not drawn) [Compound 5], in series [5] (24 h), the LC50 amounted to 18 µg/mL (≈ 59.3 µM). In series [6], the “Mortality after 1 day” value came to 100%, the “Mortality after 4 days” value was found to be 100% and the “Mortality after 7 days” value is 45.0%. Besides, the Mortality in series [7] is 68.0%.

On to `CNC(=O)Oc1ccc(C)c(C)c1` [Meobal, 3,4-dimethylphenyl-N-methylcarbamate, reference compound], for which, in series [6], the “Mortality after 1 day” value came to 100%, the “Mortality after 4 days” value worked out at 53.2% and the “Mortality after 7 days” value amounted to 10.0%.

Take `CCC[S+]([O-])N(C)C(=O)ON=C(C)SC` (stereo not drawn) [Compound 13]: the Mortality is listed as 96.7% in series [2], 100% in the series with nematode and 83.2% in [8]. In addition, the “Mortality After 24 hrs.” value in [3] came to 100%. Moreover, the “Mortality After 48 hrs.” value in series [3] is listed as 100%.

In turn, `Cc1ccc(OC(=O)N(C)[S+]([O-])c2ccccc2)cc1C` (stereo not drawn) [Compound 6] yielded a mortality at 1 ppm in series [4] of 70%. Also, the LC50 in series [5] (24 h) was found to be 25 µg/mL (≈ 82.4 µM). Further, in [6], the “Mortality after 1 day” value is listed as 90.0%, the “Mortality after 4 days” value is 63.3% and the “Mortality after 7 days” value came to 50.0%. In addition, the Mortality with nematode is on record as 100%.

In the series on nematode, `CCCSC(C)=NOC(=O)N(C)[S+]([O-])c1ccc(Cl)cc1` (stereo not drawn) [Compound 21] showed a Mortality of 65.0%.

`Cc1ccc([S+]([O-])N(C)C(=O)Oc2cccc(C)c2C)cc1` (stereo not drawn) [Compound 9]: in series [4], the mortality at 1 ppm came to 66.7%. Besides, the LC50 in [5] (24 h) came out at 29 µg/mL (≈ 91.4 µM). Further, in [6], the “Mortality after 1 day” value was determined as 100%, the “Mortality after 4 days” value was determined as 62.3% and the “Mortality after 7 days” value is 30.0%. Also, in series [7], the Mortality was 83.3%.

`CCC(=NOC(=O)N(C)[S+]([O-])c1ccccc1)SC` (stereo not drawn) [Compound 19] displayed a Mortality in series [8] of 66.7%.

The molecule `Cc1ccc(OC(=O)N(C)[S+]([O-])c2ccc([N+](=O)[O-])cc2)cc1C` (stereo not drawn) [Compound 10] gave an LC50 in [5] (24 h) of 33 µg/mL (≈ 94.7 µM). Further, in series [6], the “Mortality after 1 day” value amounted to 100%, the “Mortality after 4 days” value is given as 50.0% and the “Mortality after 7 days” value is recorded as 23.3%. Also, the Mortality in series [7] is on record as 72.2%.

Regarding `Cc1cccc(OC(=O)N(C)[S+]([O-])c2ccccc2)c1` (stereo not drawn) [Compound 7], the LC50 in series [5] (24 h) was found to be 43 µg/mL (≈ 149 µM). In [6], the “Mortality after 1 day” value is 86.7%, the “Mortality after 4 days” value turned out to be 65.0% and the “Mortality after 7 days” value worked out at 46.7%. Moreover, the Mortality in series [7] was 96.7%.

Molecule `Cc1ccc(OC(=O)N(C)[S+]([O-])c2ccccc2)c(C)c1` (stereo not drawn) [Compound 4] showed an LC50 in [5] (24 h) of 33 µg/mL (≈ 109 µM). For the same molecule, in series [6], the “Mortality after 1 day” value was 100%, the “Mortality after 4 days” value was found to be 83.3% and the “Mortality after 7 days” value turned out to be 53.3%.

Turning to `Cc1ccc([S+]([O-])N(C)C(=O)Oc2ccc(C)c(C)c2)cc1` (stereo not drawn) [Compound 8], the mortality at 1 ppm in series [4] turned out to be 100%. The molecule also showed an LC50 in series [5] (24 h) of 50 µg/mL (≈ 158 µM). In [6], the “Mortality after 1 day” value worked out at 85.0%, the “Mortality after 4 days” value was 50.0% and the “Mortality after 7 days” value is listed as 42.0%.

Take `CN(C(=O)Oc1ccc(Cl)cc1)[S+]([O-])c1ccccc1` (stereo not drawn) [Compound 2]: the LC50 in [5] (24 h) stood at 20 µg/mL (≈ 64.6 µM). Further, in series [6], the “Mortality after 1 day” value is recorded as 96.7%, the “Mortality after 4 days” value came out at 75.0% and the “Mortality after 7 days” value was 20.0%. Also, the Mortality in series [7] was 75.0%. The Mortality in the series with nematode was 79.8%.

As to `CSC(C)=NOC(=O)N(C)[S+]([O-])c1ccccc1` (stereo not drawn) [Compound 15], the mortality at 1 ppm in series [4] (1 ppm aqueous solution of emulsifiable concentrate, 30 larvae, time not stated, read-out: Mortality) turned out to be 78.3%. Besides, the Mortality in series [2] is recorded as 95.9%; in series [7], 70.0%; with nematode it was 100%; in series [8] it was 82.3%. Also, in series [5] (rice plants dipped 1 minute in dilute emulsifiable concentrate, after 24 hours, read-out: LC50), the LC50 was 123 µg/mL (≈ 430 µM). Moreover, the Degree of breeding entry in [9] (carmine mites) is recorded as “- (the number alive is less than 10)”. Besides, the Degree of damage result in series [9] (kidney bean leaves) was “-~+”.
